ChEMBL document CHEMBL4431387, “Anti-adipogenic and anti-diabetic effects of cis-3',4'-diisovalerylkhellactone isolated from Peucedanum japonicum Thunb leaves in vitro” (Bioorg Med Chem Lett, 2016)
Calls of active or inactive are those of the source. The calls are words filed in the database; no cut-off is given here.

Columns and labels:
3T3-L1 [1] = assay: Induction of glucose uptake in differentiated mouse 3T3L1 cells at 50 uM preincubated for 20 mins followed by 2-deoxyglucose addition measured after 20 mins by fluorescence assay relative to control; assay type: functional
3T3-L1 [2] = assay: Downregulation of PPARgamma mRNA expression in mouse 3T3L1 cells by qRT-PCR analysis; assay type: functional, cell-based
[3] = molecular target: T1, 5'-AMP-activated protein kinase (Mus musculus) (UniProt Q5EG47+Q8BRK8+Q6PAM0+O54950+Q91WG5+Q9R078+Q8BGM7); assay: Induction of AMPK phosphorylation in mouse 3T3L1 cells at 50 uM by SDS-PAGE analysis; assay type: cell-based; details: 3T3-L1
3T3-L1 [4] = assay: Antiadipogenic activity in differentiated mouse 3T3L1 cells assessed as reduction in triglyceride levels at 50 uM after 8 days by oil red o-staining based spectrophotometric analysis relative to control; assay type: functional; set-up: scale not given: the % may be the effect or the level left
3T3-L1 [5] = assay: Induction of glucose uptake in differentiated mouse 3T3L1 cells at 30 uM preincubated for 20 mins followed by 2-deoxyglucose addition measured after 20 mins by fluorescence assay relative to control; assay type: functional
3T3-L1 [6] = assay: Downregulation of C/EBPalpha mRNA expression in mouse 3T3L1 cells by qRT-PCR analysis; assay type: functional, cell-based
3T3-L1 [7] = assay: Downregulation of C/EBPalpha protein expression in mouse 3T3L1 cells by SDS-PAGE analysis; assay type: functional, cell-based
3T3-L1 [8] = assay: Antiadipogenic activity in mouse 3T3L1 cells assessed as suppression of adipocyte differentiation at 20 uM after 8 days by oil red o-staining based spectrophotometric analysis; assay type: functional
3T3-L1 [9] = assay: Cytotoxicity against mouse 3T3L1 cells assessed as reduction in cell viability at =<50 uM after 48 hrs by SRB assay; assay type: cell-based; details: 3t3-l1, 48 h
[10] = molecular target: T1, 5'-AMP-activated protein kinase (Mus musculus); assay: Induction of AMPK phosphorylation in mouse 3T3L1 cells at 30 uM by SDS-PAGE analysis; assay type: cell-based; details: 3T3-L1
3T3-L1 [11] = assay: Cytotoxicity against mouse 3T3L1 cells assessed as reduction in cell viability at 10 to 50 uM after 48 hrs by SRB assay; assay type: cell-based; details: 3t3-l1, 48 h
3T3-L1 [12] = assay: Antiadipogenic activity in differentiated mouse 3T3L1 cells assessed as reduction in triglyceride levels at 20 uM after 8 days by oil red o-staining based spectrophotometric analysis relative to control; assay type: functional; set-up: scale not given: the % may be the effect or the level left
[13] = molecular target: Alpha glucosidase (Homo sapiens) (UniProt O43451+P10253+P14410+Q2M2H8); assay: Inhibition of alpha-glucosidase (unknown origin) using […]-alpha-D-glucopyranoside as substrate at 10 to 50 uM preincubated for 10 mins followed by substrate addition measured after 5 mins; assay type: protein assay
3T3-L1 [14] = assay: Antiadipogenic activity in mouse 3T3L1 cells assessed as suppression of adipocyte differentiation at 30 uM after 8 days by oil red o-staining based spectrophotometric analysis; assay type: functional
3T3-L1 [15] = assay: Antiadipogenic activity in differentiated mouse 3T3L1 cells assessed as reduction in triglyceride levels at 30 uM after 8 days by oil red o-staining based spectrophotometric analysis relative to control; assay type: functional; set-up: scale not given: the % may be the effect or the level left
3T3-L1 [16] = assay: Downregulation of SREBP-1c mRNA expression in mouse 3T3L1 cells by qRT-PCR analysis; assay type: functional, cell-based
3T3-L1 [17] = assay: Antiadipogenic activity in mouse 3T3L1 cells assessed as suppression of adipocyte differentiation after 8 days by oil red o-staining based spectrophotometric analysis; assay type: functional, cell-based
3T3-L1 [18] = assay: Downregulation of PPARgamma protein expression in mouse 3T3L1 cells by SDS-PAGE analysis; assay type: functional, cell-based
3T3-L1 [19] = assay: Antiadipogenic activity in mouse 3T3L1 cells assessed as suppression of adipocyte differentiation at 50 uM after 8 days by oil red o-staining based spectrophotometric analysis; assay type: functional
3T3-L1 [20] = assay: Downregulation of SREBP-1c protein expression in mouse 3T3L1 cells by SDS-PAGE analysis; assay type: functional, cell-based

Activity [3]: 103% | Activity [10]: 72% | inhibition [13]: Active
SMILES: CC(C)CC(=O)O[C@@H]1c2c(ccc3ccc(=O)oc23)OC(C)(C)[C@@H]1OC(=O)CC(C)C (relative stereo)
Activity (3T3-L1 [1]): 57% | Activity (3T3-L1 [2]): Dose-dependent effect | Activity (3T3-L1 [4]): 65% | Activity (3T3-L1 [5]): 43% | Activity (3T3-L1 [6]): Dose-dependent effect | Activity (3T3-L1 [7]): Dose-dependent effect | Activity (3T3-L1 [8]): 33% | Activity (3T3-L1 [9]): Non-Toxic | Activity (3T3-L1 [11]): Non-Toxic | Activity (3T3-L1 [12]): 44% | Activity (3T3-L1 [14]): 71% | Activity (3T3-L1 [15]): 67% | Activity (3T3-L1 [16]): Dose-dependent effect | Activity (3T3-L1 [17]): Active | Activity (3T3-L1 [18]): Dose-dependent effect | Activity (3T3-L1 [19]): 80% | Activity (3T3-L1 [20]): Dose-dependent effect
